Reference: PubChem BioAssay AID330 (DTP/NCI, 2004)
Several values for one entry are separate records, joined by “and”; a condition that tells them apart may be missing. Identical values can stand only once. Toxic doses and inconclusive results are not listed.

Test system: P388 leukemia ip, CD2F1 mice, survival T/C
Assay: NCI In Vivo Anticancer Drug Screen. Data for tumor model P388 Leukemia (intraperitoneal) in CD2F1 (CDF1) mice
Details: endpoint: median survival time, higher = longer survival
How it was run: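 Mice carrying the transplanted tumor received test compound or vehicle. Survival was recorded in each group, and the value is the treated-group measurement divided by that of the vehicle-treated control group.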

[1] = dose: 50.0 mg/kg/injection, schedule: Q01DX005 (ip), vehicle: saline with Tween-80
[2] = dose: 100.0 mg/kg/injection, schedule: Q01DX005 (ip), vehicle: saline with Tween-80
[3] = dose: 50.0 mg/kg/injection, schedule: Q01DX005 (ip), vehicle: Klucel (hydroxypropylcellulose) (HPC)
[4] = dose: 100.0 mg/kg/injection, schedule: Q01DX005 (ip), vehicle: Klucel (hydroxypropylcellulose) (HPC)
[5] = dose: 200.0 mg/kg/injection, schedule: Q01DX005 (ip), vehicle: Klucel (hydroxypropylcellulose) (HPC)
[6] = dose: 60.0 mg/kg/injection, schedule: Q01DX005 (ip), vehicle: saline with Tween-80
[7] = dose: 120.0 mg/kg/injection, schedule: Q01DX005 (ip), vehicle: saline with Tween-80
[8] = dose: 240.0 mg/kg/injection, schedule: Q01DX005 (ip), vehicle: saline with Tween-80
[9] = dose: 50.0 mg/kg/injection, schedule: Q01DX009 (ip), vehicle: saline with Tween-80
[10] = dose: 100.0 mg/kg/injection, schedule: Q01DX009 (ip), vehicle: saline with Tween-80
[11] = dose: 200.0 mg/kg/injection, schedule: Q01DX009 (ip), vehicle: saline with Tween-80
[12] = dose: 12.5 mg/kg/injection, schedule: Q04DX003 (ip), vehicle: Klucel (hydroxypropylcellulose) (HPC)
[13] = dose: 25.0 mg/kg/injection, schedule: Q04DX003 (ip), vehicle: Klucel (hydroxypropylcellulose) (HPC)
[14] = dose: 50.0 mg/kg/injection, schedule: Q04DX003 (ip), vehicle: Klucel (hydroxypropylcellulose) (HPC)

## CCOC(=O)N1C=CC(=C2C(=C3C=CN(C(=O)OCC)C=C3)C(=C3C=CN(C(=O)OCC)C=C3)C2=C2C=CN(C(=O)OCC)C=C2)C=C1
dose: 25.0 mg/kg/injection, schedule: Q01DX005 (ip), vehicle: saline with Tween-80
  T/C: 100 % of control
[1]
  T/C: 101 % of control and 102 % of control and 117 % of control
[2]
  T/C: 100 % of control and 105 % of control and 109 % of control
dose: 200.0 mg/kg/injection, schedule: Q01DX005 (ip), vehicle: saline with Tween-80
  T/C: 99 % of control

## C=CCc1cn(C2CC(OC(=O)c3ccc(Cl)cc3)C(COC(=O)c3ccc(Cl)cc3)O2)c(=O)[nH]c1=O (stereo not drawn)
[3]
  T/C: 98 % of control
[4]
  T/C: 98 % of control
[5]
  T/C: 91 % of control

## O=c1[nH]ccn1-c1ccccc1
[6]
  T/C: 102 % of control
[7]
  T/C: 100 % of control
[8]
  T/C: 97 % of control

## CC(=O)CC(=O)CCCCCCCCCCCC(=O)O
[9]
  T/C: 94 % of control
[10]
  T/C: 98 % of control
[11]
  T/C: 103 % of control

## O=C1C=Cn2cc(-c3ccccc3)c(-c3ccccc3)c21
[3]
  T/C: 96 % of control
[4]
  T/C: 97 % of control
[5]
  T/C: 95 % of control

## CC(C)(C)c1cc2c3c(c1)C(C(F)(F)F)(C(F)(F)F)OS3(O)OC2(C(F)(F)F)C(F)(F)F
dose: 12.5 mg/kg/injection, schedule: Q01DX005 (ip), vehicle: suspension in saline
  T/C: 103 % of control
dose: 25.0 mg/kg/injection, schedule: Q01DX005 (ip), vehicle: suspension in saline
  T/C: 108 % of control

## CCN(CC)CCCNc1cccc2c(SCc3ccccc3)ccnc12
[1]
  T/C: 112 % of control
[2]
  T/C: 102 % of control

## COc1cc2c(C)cc(=O)oc2c(OCC(O)CN2CCCC2)c1OC (stereo not drawn)
dose: 60.0 mg/kg/injection, schedule: Q01DX005 (ip), vehicle: saline
  T/C: 96 % of control
dose: 120.0 mg/kg/injection, schedule: Q01DX005 (ip), vehicle: saline
  T/C: 99 % of control

## CC1=C(CO)C(=O)OC(C(C)C2CCC3C4CC5OC56C(O)C(N5CCCC5)CC(=O)C6(C)C4CCC23C)C1 (stereo not drawn)
dose: 8.75 mg/kg/injection, schedule: Q01DX005 (ip), vehicle: Klucel (hydroxypropylcellulose) (HPC)
  T/C: 94 % of control
dose: 17.5 mg/kg/injection, schedule: Q01DX005 (ip), vehicle: Klucel (hydroxypropylcellulose) (HPC)
  T/C: 97 % of control
dose: 35.0 mg/kg/injection, schedule: Q01DX005 (ip), vehicle: Klucel (hydroxypropylcellulose) (HPC)
  T/C: 99 % of control
dose: 70.0 mg/kg/injection, schedule: Q01DX005 (ip), vehicle: Klucel (hydroxypropylcellulose) (HPC)
  T/C: 111 % of control
dose: 140.0 mg/kg/injection, schedule: Q01DX005 (ip), vehicle: Klucel (hydroxypropylcellulose) (HPC)
  T/C: 103 % of control

## N#CN=[N+]([O-])c1ccccc1[N+](=O)[O-]
dose: 6.25 mg/kg/injection, schedule: Q04DX003 (ip), vehicle: Klucel (hydroxypropylcellulose) (HPC)
  T/C: 110 % of control
[12]
  T/C: 106 % of control

## CCOC(=O)c1[nH]c2ccc(O)c3c2c1CCC3=O
[9]
  T/C: 92 % of control
[10]
  T/C: 88 % of control
[11]
  T/C: 94 % of control

## CCN(CC)C(=S)SS(C)(=O)=O
[13]
  T/C: 99 % of control
[14]
  T/C: 107 % of control
dose: 100.0 mg/kg/injection, schedule: Q04DX003 (ip), vehicle: Klucel (hydroxypropylcellulose) (HPC)
  T/C: 107 % of control

## CS(=O)(=O)OCCOc1ccc(-c2nc3ccccc3[nH]2)cc1
dose: 100.0 mg/kg/injection, schedule: Q01DX001 (ip), vehicle: saline with Tween-80
  T/C: 90 % of control
dose: 200.0 mg/kg/injection, schedule: Q01DX001 (ip), vehicle: saline with Tween-80
  T/C: 98 % of control
dose: 400.0 mg/kg/injection, schedule: Q01DX001 (ip), vehicle: saline with Tween-80
  T/C: 99 % of control

## O=C(NCCF)Oc1cc(Cl)c(Cl)cc1Cl
dose: 6.25 mg/kg/injection, schedule: Q01DX005 (ip), vehicle: Klucel (hydroxypropylcellulose) (HPC)
  T/C: 106 % of control
dose: 12.5 mg/kg/injection, schedule: Q01DX005 (ip), vehicle: Klucel (hydroxypropylcellulose) (HPC)
  T/C: 107 % of control and 120 % of control

## C=CCC12C[C@H](OC)[C@@H](O)[C@](OC)(C1O)[C@H](c1ccc3c(c1)OCO3)[C@H]2C (stereo partly drawn)
dose: 16.25 mg/kg/injection, schedule: Q01DX005 (ip), vehicle: Klucel (hydroxypropylcellulose) (HPC)
  T/C: 108 % of control
dose: 32.5 mg/kg/injection, schedule: Q01DX005 (ip), vehicle: Klucel (hydroxypropylcellulose) (HPC)
  T/C: 98 % of control
dose: 65.0 mg/kg/injection, schedule: Q01DX005 (ip), vehicle: Klucel (hydroxypropylcellulose) (HPC)
  T/C: 99 % of control
dose: 130.0 mg/kg/injection, schedule: Q01DX005 (ip), vehicle: Klucel (hydroxypropylcellulose) (HPC)
  T/C: 89 % of control

## CN1C(=O)c2ccccc2N(C)C12CCN(Cc1ccccc1)CC2
dose: 50.0 mg/kg/injection, schedule: Q01DX005 (ip), vehicle: distilled water + alcohol
  T/C: 103 % of control
dose: 100.0 mg/kg/injection, schedule: Q01DX005 (ip), vehicle: distilled water + alcohol
  T/C: 100 % of control
dose: 200.0 mg/kg/injection, schedule: Q01DX005 (ip), vehicle: distilled water + alcohol
  T/C: 97 % of control

## O=Nc1ccc(Cl)cc1
[12]
  T/C: 103 % of control
[13]
  T/C: 101 % of control
[14]
  T/C: 93 % of control

## N=C(N)c1ccc(N=Nc2c(O)ccc3cc4c(N=Nc5ccc(C(=N)N)cc5)c(O)ccc4cc23)cc1
[3]
  T/C: 110 % of control
[4]
  T/C: 111 % of control
[5]
  T/C: 110 % of control

## [N-]=[N+]=Nc1ccnc2cc(F)ccc12
[6]
  T/C: 96 % of control
[7]
  T/C: 104 % of control
[8]
  T/C: 95 % of control

## CN(C)CCCNC(=O)Cc1cc(O)c2c(c1O)C(=O)c1ccccc1C2=O
dose: 25.0 mg/kg/injection, schedule: Q04DX003 (ip), vehicle: saline with Tween-80
  T/C: 106 % of control
dose: 50.0 mg/kg/injection, schedule: Q04DX003 (ip), vehicle: saline with Tween-80
  T/C: 106 % of control
dose: 100.0 mg/kg/injection, schedule: Q04DX003 (ip), vehicle: saline with Tween-80
  T/C: 104 % of control and 123 % of control
dose: 200.0 mg/kg/injection, schedule: Q04DX003 (ip), vehicle: saline with Tween-80
  T/C: 120 % of control and 95 % of control

## COc1cccc2c1C(=O)c1c(O)c3c(c(O)c1C2=O)CC(O)(C(C)NCCN(C)C)CC3OC1CC(N)C(O)C(C)O1 (stereo not drawn)
dose: 0.63 mg/kg/injection, schedule: Q01DX009 (ip), vehicle: water
  T/C: 103 % of control
dose: 1.25 mg/kg/injection, schedule: Q01DX009 (ip), vehicle: water
  T/C: 106 % of control
dose: 2.5 mg/kg/injection, schedule: Q01DX009 (ip), vehicle: other
  T/C: 121 % of control
dose: 20.0 mg/kg/injection, schedule: Q01DX009 (ip), vehicle: other
  T/C: 153 % of control
dose: 40.0 mg/kg/injection, schedule: Q01DX009 (ip), vehicle: other
  T/C: 157 % of control

## CCOc1ccc(C2c3ccc(OC)cc3OC(C)(C)C2c2ccccc2)cc1[N+](=O)[O-] (stereo not drawn)
[3]
  T/C: 101 % of control
[4]
  T/C: 99 % of control
[5]
  T/C: 95 % of control

## CC(=O)O[C@@H]1[C@@H](O)[C@H]2O[C@@H]3C=C(C)CC[C@]3(CO)[C@]1(C)[C@@]21CO1
dose: 1.25 mg/kg/injection, schedule: Q01DX009 (ip), vehicle: saline with Tween-80
  T/C: 110 % of control and 120 % of control
dose: 2.5 mg/kg/injection, schedule: Q01DX009 (ip), vehicle: saline with Tween-80
  T/C: 118 % of control and 121 % of control
dose: 5.0 mg/kg/injection, schedule: Q01DX009 (ip), vehicle: saline with Tween-80
  T/C: 120 % of control
dose: 20.0 mg/kg/injection, schedule: Q01DX009 (ip), vehicle: saline with Tween-80
  T/C: 93 % of control

## CCOc1cc(=O)cc2n(-c3cc(OCC)c(OC)c(OCC)c3)c3ccccc3nc1-2
dose: 50.0 mg/kg/injection, schedule: Q01DX009 (ip), vehicle: suspension in saline
  T/C: 101 % of control
dose: 100.0 mg/kg/injection, schedule: Q01DX009 (ip), vehicle: suspension in saline
  T/C: 101 % of control
dose: 200.0 mg/kg/injection, schedule: Q01DX009 (ip), vehicle: suspension in saline
  T/C: 90 % of control

## C1OC1CN1CCN(CC2CO2)CC1 (stereo not drawn)
dose: 4.0 mg/kg/injection, schedule: Q01DX009 (ip), vehicle: saline
  T/C: 124 % of control
dose: 8.0 mg/kg/injection, schedule: Q01DX009 (ip), vehicle: saline
  T/C: 150 % of control
dose: 16.0 mg/kg/injection, schedule: Q01DX009 (ip), vehicle: saline
  T/C: 196 % of control

## O=S1(=O)CC(N2CCCCC2)C2=C(O1)c1ccccc1N(c1ccccc1)C2 (stereo not drawn)
[9]
  T/C: 97 % of control
[10]
  T/C: 96 % of control
[11]
  T/C: 97 % of control

## O=[N+]([O-])c1cc(I)c(O)c(/C=N/NS(=O)(=O)c2ccc(Cl)cc2)c1
[1]
  T/C: 101 % of control
[2]
  T/C: 100 % of control
